BindingDB's records for doi:10.1016/s0960-894x(98)00476-4 (University of Michigan, 1999)

Assay: Binding affinity against Opioid receptor delta 1

Compound | Ki
CC1(C)SSC[C@@H](NC(=O)[C@@H](N)Cc2ccccc2)C(=O)N[C@@H](Cc2ccccc2)C(=O)N[C@H]1C(=O)O [10-(2-Amino-3-phenyl-propionylamino)-7-benzyl-3,3-dimethyl-6,9-dioxo-1,2-dithia-5,8-diaza-cycloundecane-4-carboxylic acid] | 42 nM
CC1(C)SCCSC[C@@H](NC(=O)[C@@H](N)Cc2ccccc2)C(=O)N[C@@H](Cc2ccccc2)C(=O)N[C@H]1C(N)=O [12-(2-Amino-3-phenyl-propionylamino)-9-benzyl-5,5-dimethyl-8,11-dioxo-1,4-dithia-7,10-diaza-cyclotridecane-6-carboxylic acid amide] | 1020 nM
